Laboratory results as given in publication PMC13594947 (Journal of Molecular and Cellular Cardiology Plus, 2026).
Like-named read-outs stand apart in the source and are kept apart here.

Columns and labels:
PRMT5 = experiment: Immunoblot of global SDMA in neonatal rat ventricular cardiomyocytes; format: cell-based; details: concentrations up to 50 μM
murine heart [1] = experiment: Short-term application (5 consecutive days) in mice: transthoracic echocardiography, survival; format: in vivo
Experimental: (§1) All animal studies were approved by and conducted in accordance with the German Animal Welfare Act and approved by the Animal Experiment Review Board of the Regierungspräsidium Karlsruhe, Germany. The study refers to the application G210-19. C57BL/6N mice were purchased from Charles River at the age of 12 weeks. Male and female mice were included in an equal ratio.
(§2) The compound (Medchemexpress) was dissolved in 5% DMSO, 40% PEG300, 5% Tween-80 in isotonic saline solution and administered either via oral gavage or by injection into the tail vein. Control animals received the same solution without compound.
(§3) Cardiac performance was determined by transthoracic echocardiography. Measurements on conscious mice were performed using a Vevo® 2100 system with a 55 MHz transducer (Visualsonics). Ejection fraction (EF) was averaged over at least 5 contraction cycles. The experimenter was blinded for genotype and treatment.

Myh7 and Nppa expression = experiment: PRMT5i combined with ORAB/sham surgery: quantitative PCR of Myh7 and Nppa in left-ventricular tissue; format: in vivo; details: mice
Experimental: (§4) The surgical procedure was essentially performed as previously described^20. In brief, animals were narcotized using Isoflurane. The thorax was opened and a nitrile O-ring (inner diameter 0.020 inch) was closed around the aorta ascendens in order to enhance pressure load of the left ventricle. Perisurgically and for the following days, analgesia was maintained via buprenorphine.
1µg of RNA was reverse transcribed (PrimaDIRECT 2x PCR Master Mix Kit (Steinbrenner)) and cDNA was subjected to quantitative PCR on a LightCycler480 (Roche) using SYBR Green Master Mix (Thermo Fisher).
mmMyh7: • For: 5’ AGCATTCTCCTGCTGTTTCCT 3’ • Rev: 5’ CCAGGCCTGTAGAAGAGCTG 3’
mmNppa: • For: 5’ ATTGACAGGATTGGAGCCCAGAGT 3’ • Rev: 5’ TGACACACCACAAGGGCTTAGGAT 3’
mmGapdh: • For: 5’ GGTGGACCTCATGGCCTACA 3’ • Rev: 5’ CTCTCTTGCTCAGTGTCCTTGCT 3’

murine heart [2] = experiment: Long-term application in mice: Masson Trichrome histology (fibrosis); format: in vivo; details: 8 weeks
Experimental: (§5) Heart cross-sections (2-chamber view) were fixed in Roti Histofix (Roth, P087.5) and dehydrated in ethanol. After paraffin embedding, slices of 6µm thickness were cut and used for Hematoxylin/Eosin and Masson’s trichrome staining. Imaging was performed on a Zeiss Axioscan 7. For analysis, 10 snapshots of fixed dimension were taken per animal and the percentage of fibrotic tissue was assessed based on color threshold using ImageJ.

hematopoiesis [3] = experiment: PRMT5i combined with ORAB/sham surgery: blood cell parameters; format: in vivo; details: mice, chronic PRMT5i with ORAB/sham
Experimental: The surgical procedure was essentially performed as previously described^20. In brief, animals were narcotized using Isoflurane. The thorax was opened and a nitrile O-ring (inner diameter 0.020 inch) was closed around the aorta ascendens in order to enhance pressure load of the left ventricle. Perisurgically and for the following days, analgesia was maintained via buprenorphine. Hematological parameters were analyzed using an automated hematology analyzer ([…] ABC, ABX Diagnostics, France) according to manufacturer's instructions. Whole blood samples were collected into EDTA-coated tubes to prevent coagulation. The following parameters were determined: red blood cell count (RBC), white blood cell count (WBC), hemoglobin concentration (HGB), mean corpuscular volume (MCV), mean corpuscular hemoglobin (MCH), platelet count (PLT), and differential leukocyte counts.

murine heart [4] = experiment: Short-term application in mice: histology of cardiac cross-sections; format: in vivo; details: oral once or twice a day, 5 consecutive days
Experimental: as §5, with “The compound (Medchemexpress) was dissolved in 5% DMSO, 40% PEG300, 5% Tween-80 in isotonic saline solution and administered either via oral gavage or by injection into the tail vein. Control animals received the same solution without compound. Heart” for “Heart”

[5] = Single-dose pharmacokinetics in mice: plasma levels by UPLC-MS/MS; format: in vivo
Experimental: (§6) All animal studies were approved by and conducted in accordance with the German Animal Welfare Act and approved by the Animal Experiment Review Board of the Regierungspräsidium Karlsruhe, Germany. The study refers to the application […]-19. C57BL/6N mice were purchased from Charles River at the age of 12 weeks. Male and female mice were included in an equal ratio. The compound (Medchemexpress) was dissolved in 5% DMSO, 40% PEG300, 5% Tween-80 in isotonic saline solution and administered either via oral gavage or by injection into the tail vein. Control animals received the same solution without compound. […] Tissue samples were homogenized in water using a Bead Ruptor 4 homogenizer (Omni International Inc, USA) for at least 120 s with ceramic beads. After protein precipitation with acetonitrile, plasma and tissue sample extracts were measured using an UPLC-MS/MS (Waters, USA) setup including an Acquity UPLC I-Class® coupled with a Xevo TQ-S triple stage quadrupole mass spectrometer (Waters), which featured a heated ESI source (Z-Spray in the positive MRM mode). Gradient chromatography was conducted using an ACQUITY UPLC BEH C18 column (130 Å, 1.7 μm, 2.1 mm × 50 mm; Waters, USA) consisting of eluent A (95/5 H2O/ACN with 0.1% formic acid) and eluent B (ACN with 0.1% formic acid).

murine heart [6] = experiment: PRMT5i combined with O-ring aortic banding (ORAB)/sham surgery: echocardiography; format: in vivo; details: mice, 56 days combined with ORAB/sham surgery
Experimental: The compound (Medchemexpress) was dissolved in 5% DMSO, 40% PEG300, 5% Tween-80 in isotonic saline solution and administered either via oral gavage or by injection into the tail vein. Control animals received the same solution without compound. Cardiac performance was determined by transthoracic echocardiography. Measurements on conscious mice were performed using a Vevo® 2100 system with a 55 MHz transducer (Visualsonics). Ejection fraction (EF) was averaged over at least 5 contraction cycles. The experimenter was blinded for genotype and treatment.

hematopoiesis [7] = experiment: Long-term application in mice: blood cell parameters; format: in vivo; details: 8 weeks
Experimental: Hematological parameters were analyzed using an automated hematology analyzer ([…] ABC, ABX Diagnostics, France) according to manufacturer's instructions. Whole blood samples were collected into EDTA-coated tubes to prevent coagulation. The following parameters were determined: red blood cell count (RBC), white blood cell count (WBC), hemoglobin concentration (HGB), mean corpuscular volume (MCV), mean corpuscular hemoglobin (MCH), platelet count (PLT), and differential leukocyte counts.

murine heart [8] = experiment: PRMT5i combined with ORAB/sham surgery: histology (fibrosis); format: in vivo; details: mice
Text: The surgical procedure was essentially performed as previously described^20. In brief, animals were narcotized using Isoflurane. The thorax was opened and a nitrile O-ring (inner diameter 0.020 inch) was closed around the aorta ascendens in order to enhance pressure load of the left ventricle. Perisurgically and for the following days, analgesia was maintained via buprenorphine. Heart cross-sections (2-chamber view) were fixed in Roti Histofix (Roth, P087.5) and dehydrated in ethanol. After paraffin embedding, slices of 6µm thickness were cut and used for Hematoxylin/Eosin and Masson’s trichrome staining. Imaging was performed on a Zeiss Axioscan 7. For analysis, 10 snapshots of fixed dimension were taken per animal and the percentage of fibrotic tissue was assessed based on color threshold using ImageJ.

mice [9] = experiment: PRMT5i combined with ORAB/sham surgery: mortality; format: in vivo; details: PRMT5i-treated mice undergoing ORAB
Experimental: as §2, §4

murine heart [10] = experiment: Long-term application (8 weeks) in mice: transthoracic echocardiography; format: in vivo; details: over the course of 8 weeks
Experimental: as §1, §2, §3

HEK293 cells = experiment: PRMT5i-associated cytotoxicity, CellTiter 96 Cell Proliferation Assay; format: cell-based; details: dosage escalation beyond 10 μM, 48 h exposure
Experimental: HEK293 cells (ATCC) were cultured in DMEM (PanBiotech) supplemented with 10% FCS (Thermo Fisher) and 1% penicillin-streptomycin (Thermo Fisher) and incubated at standard conditions. Cells between passage 5 and 18 were used for experiments. Neonatal rat ventricular myocytes (NRVMs) were isolated from 24h-to-72h old rats using the Neonatal Heart Dissociation Kit (Miltenyi Biotec) according to manufacturer’s recommendations, cultured in DMEM supplemented with 10% FCS and 1% penicillin-streptomycin and incubated at standard conditions. EPZ015666 and GSK3326595 (MedChemExpress) were dissolved in DMSO and added into the culture medium at indicated dosages. For protein analysis, cells were treated for 96 h including a medium exchange after 48 h. Control cells were treated with DMSO accordingly. Single values in the analysis represent individually treated wells (technical replicates) and experiments were reproduced at least three times using independent cell passages or preparations. […] The treatment was performed in individual wells and absorbance at 570 nm was recorded on an EnSight Plate reader (PerkinElmer).

mice [11] = experiment: Long-term application in mice: body weight, mortality, heart and lung weight to tibia length; format: in vivo; details: 8 weeks
Experimental: as §1, §2

[12] = Single-dose pharmacokinetics in mice: tissue levels (heart, liver, kidney, skeletal muscle) by UPLC-MS/MS; format: in vivo; details: for concentration at 1 h: po, 100 mg/kg, oral 100 mg/kg, peak (1 h)
Experimental: as §6

patients = details: ref [12], [18]; cited from earlier work

Compound: O=C(NC[C@H](O)CN1CCc2ccccc2C1)c1cc(NC2COC2)ncn1 [EPZ015666]
- global SDMA (PRMT5): did not detect a significant reduction of global SDMA

Compound: CC(=O)N1CCC(Nc2cc(C(=O)NC[C@H](O)CN3CCc4ccccc4C3)ncn2)CC1 [GSK3326595]
- ejection fraction (murine heart [1]; oral once or twice a day, 5 consecutive days): did not detect changes in ejection fraction
- death during the experiment (murine heart [1]; short-term application, 10 mg/kg): one animal (10 mg/kg) that died during the course of the experiment
- expression of cardiac stress markers Myh7 and Nppa (Myh7 and Nppa expression): stable expression of classical cardiac stress markers such as Myh7 and Nppa
- myocardial fibrosis (Masson Trichrome staining) (murine heart [2]): remained stable
- hematology: anemia, leucopenia (hematopoiesis [3]): significant normocytic normochromic anemia and leucopenia
- platelets (hematopoiesis [3]): not affected
- tissue morphology / fibrotic remodeling (murine heart [4]): no immediate detrimental effects or fibrotic remodeling
- half-life ([5]; both sexes, C57BL/6N, mouse, plasma): 2.5 h
- bioavailability ([5]; both sexes, C57BL/6N, mouse, plasma, po): 5.7%
- decline of plasma concentration on average ([5]; over a course of 12 h): > 90%
- time of plasma peak concentration post application ([5]; single dose oral gavage or intravenous): 1 h
- longitudinal echocardiographic analysis (murine heart [6]): no statistical significance was found for any of the indicated time points in any group comparison
- hematology: anemia, lymphopenia (hematopoiesis [7]): significant anemia and lymphopenia
- platelets counts (hematopoiesis [7]): unaltered
- fibrotic remodeling (histology) (murine heart [8]): no significant fibrotic remodeling
- mortality (mice [9]): delayed mortality starting 2 weeks post-surgery
- systolic cardiac function (murine heart [10]): preserved
- cytotoxicity (HEK293 cells): significantly less cytotoxicity as compared to EPZ015666
- heart weight-to-tibia length and lung weight-to-tibia length (mice [11]): did not reveal PRMT5i-induced alterations
- tolerability (body weight, mortality) (mice [11]): well tolerated as determined by stable body weight without treatment-associated mortality
- heart targeted by % dosage on average ([12]; as worded): 19.0%
- muscle tissue targeted by % dosage on average ([12]; as worded): 26.0%
- heart targeted by % dosage on average (versus liver) ([12]; as worded in b7, first of 'respectively'): 26.0%
- heart targeted by % dosage on average (versus kidney) ([12]; as worded in b7, second of 'respectively'): 19.0%
- concentration at 1 h ([12]; both sexes, C57BL/6N, mouse, heart, read-out: absolute inhibitor concentration in heart): 82700 ng/g
- Tmax ([12]; both sexes, C57BL/6N, mouse, liver, kidney, heart, skeletal muscle, other: oral (gavage) and intravenous (tail vein), both arms, single dose, read-out: time of maximum levels in liver, kidney, heart and skeletal muscle): 1 h
- concentration at 1 h ([12]; both sexes, C57BL/6N, mouse, skeletal muscle, read-out: absolute inhibitor concentration in skeletal muscle): 172000 ng/g
- adverse cardiovascular events in clinical studies (patients): manifested adverse cardiovascular events were not described
